Laboratory results taken from paper PMC8912008, “Pharmacokinetic Study of Withanosides and Withanolides from Withania somnifera Using Ultra-High Performance Liquid Chromatography-Tandem Mass Spectrometry (UHPLC-MS/MS)” (Molecules, 2022).
Like-named read-outs stand apart in the source and are kept apart here.

How the values were obtained:
[1] = Stability of analytes in rat plasma; conditions: n = 6; for Processed sample stability (% ± SD): processed rat plasma sample, 4 h; for Bench top Stability (% ± SD): 25 °C for 4 h; for Freeze-thaw stability (% ± SD): three freeze/thaw cycles
Description: Six replicates of quality control samples were analyzed at four concentration levels (LLOQ, LQC, MQC, and HQC; n = 6) on the same day (intra-day) and repeated for three consecutive days (inter-day) (Table S2). The precision was expressed as the relative standard deviation (% RSD), and accuracy was reported as the relative error (% RE). Later, these samples were analyzed for stability testing under the following conditions: three complete freeze/thaw cycles (−80 °C to 25 °C), long-term sample storage (−80 °C for 60 days), processed sample, and bench-top (25 °C for 4 h).

in vitro = conditions: rat
Description: (§1) The everted intestinal segment was mounted on the apparatus and setting it in the beaker. The internal surface of the glass tubes serves as the mucosal compartment, and the beaker serves as the serosal compartment. Animals were humanly sacrificed by cervical dislocation followed by a midline incision. The abdominal cavity was opened carefully, and the intestine was maneuvered to identify the ileocecal junction. A 7 cm long intestinal segment distant to the ileocecal junction (5–6 cm) was excised by carefully removing the mesenteric attachments without causing any damage to the intestinal architecture. The segment was cleaned using the Kreb’s Ringer Bicarbonate (KRB) buffer medium and was stored in KRB buffer in a petri dish. The cleaned segment was then everted gently using a glass rod. Finally, a 3 cm long intestinal segment was used to perform the permeability study [49, 50].
(§2) The tissue was mounted on the apparatus and was placed in a 1000 mL beaker containing 2 mg/mL WSE suspension. The intestinal segment was perfused from the mucosal end using the KRB buffer. The apparatus (beaker with tissue) was placed on the magnetic stirrer followed by continuous stirring using a magnetic bead at 25 rpm to mimic the peristaltic movement of the stomach at 37 °C with appropriate aeration. The sample collection at different time points was carried out every 5 min interval for 1 h. The collected samples were further diluted and analyzed using LC-MS/MS.
(§3) The sample was diluted to 20-fold in ACN and injected 2 µL into LC-MS/MS. Samples were stored at −20 °C until analysis using validated UHPLC-MS/MS. The permeability was obtained by plotting the cumulative amount transported (ng) across the gut sac against time (second).
(§4) The calculation of apparent permeability (Papp) was carried out using the following Equation (1):Papp = dQ/dt × 1/A × C0(1) where Papp: apparent permeability co-efficient; dQ/dt: the cumulative amount of drug (Q) appearing in the acceptor (serosal) compartment as a function of time and was obtained from the slope of the linear portion of the amount transported-versus-time plot. A: Surface area of the intestine (cm^2) (0.18 cm as radius) and C0: Initial concentration of drug in the donor compartment (ng/mL).

in vivo = conditions: rat; for AUC(0-inf) / AUC(0-t) / Cmax / MRT inf / Tmax / half-life / k el: male, Sprague Dawley
Description: It is known that the hydrophobic interior surface of the cell membrane (lipid bilayer) serves as a barrier to the passage of polar and high molecular weight molecules.
Food pellets and tap water were provided ad libitum throughout the experimentation. The protocol to carry out in vivo pharmacokinetics was approved by The Institutional Animal Ethics Committee (IAEC) of Crystal Biological Solution, Pune, Maharashtra, India. […] Eighteen animals were subdivided into three groups, (n = 6) animals in each group. Withania somnifera extract suspension was prepared in water for oral administration, and the dose was calculated based on the acute oral toxicity study (500 mg/kg; single dose). […] The separated plasma samples were transferred into Eppendorf tubes and stored at −80 °C in a deep freezer until analysis. Ten pharmacokinetic parameters were determined using PK solver 2.0, USA [45, 46, 47]. The maximum observed concentration (Cmax) and maximum observed time (Tmax) were calculated directly from the experimental results. The elimination rate constant (Kel) was calculated from the slope of the linear regression of Log concentrations as a function of time. […] The area under the curve (AUC(0–t)) was calculated from the linear curve following the trapezoidal rule, while AUC(0–∞) was calculated by adding Ct/λ, with Ct being the final measurable concentration. Oral clearance (Cl/F) was obtained from the equation Cl/F = dose/AUC(0–∞). Mean residence time (MRT) was calculated as AUMC(0–∞)/AUC(0–∞), where AUMC(0–∞) is the area under the first moment curve. […] The pharmacokinetic parameters as the average of six rats ± SD. The mean plasma concentration Vs. time curve (mean ± SD) was prepared using Prism 8.2, (GraphPad, San Diego, CA, USA).

chromosomes = test system: chromosomes
Description: After completing the study, chromosomal slides were observed under 100×, and the % aberrated chromosomes were calculated.

[2] = Ex vivo permeability study, everted rat intestine apparatus
Description: as §1, §2, §3, §4

[3] = male rats, cited from earlier work
[4] = mice, oral Withania somnifera aqueous extract 1000 mg/kg; cited from earlier work
[5] = Balb/C mice, 4 mg/kg single intraperitoneal; cited from earlier work
[6] = high QC (nominal 200.50-201.50 ng/mL)
[7] = low QC (nominal 10.05-10.50 ng/mL)
[8] = rat plasma, high QC (nominal 200.50-201.50 ng/mL)
[9] = rat plasma, low QC (nominal 10.05-10.50 ng/mL)

| Structure (SMILES) | Processed sample stability (% ± SD) [1, 6] [%] | Processed sample stability (% ± SD) [1, 7] [%] | Bench top Stability (% ± SD) [1, 8] [%] | Bench top Stability (% ± SD) [1, 9] [%] | Autosampler stability (% ± SD) [1, 8] [%] | Autosampler stability (% ± SD) [1, 9] [%] | Freeze-thaw stability (% ± SD) [1, 8] [%] | Freeze-thaw stability (% ± SD) [1, 9] [%] | Papp at 1 h, 2 mg/mL (in vitro) [nm/s] | AUC(0-inf) (in vivo; in vivo, po, 500 mg/kg) [µg·h/mL] | AUC(0-t) (in vivo; in vivo, po, 500 mg/kg) [µg·h/mL] | Cmax (in vivo; in vivo, po, 500 mg/kg) [µg/mL] | MRT inf (in vivo; in vivo, po, 500 mg/kg) [min] | Tmax (in vivo; in vivo, po, 500 mg/kg) [min] | half-life (in vivo; in vivo, po, 500 mg/kg) [min] | k el (in vivo; in vivo, po, 500 mg/kg) [s⁻¹] | oral clearance (Cl/F) (in vivo; in vivo, po, 500 mg/kg) | plasma half-life (t1/2) [4] [min] | also measured |
| --- | --- | --- | --- | --- | --- | --- | --- | --- | --- | --- | --- | --- | --- | --- | --- | --- | --- | --- | --- |
| CC1=C(CO)C(=O)OC(C(C)C2CCC3C4C5OC5C5(O)CC=CC(=O)C5(C)C4CCC23C)C1 (stereo not drawn) [12-Deoxy-withastramonolide] | 92.99 ± 8.83 | 121.14 ± 59.07 | 95.97 ± 7.13 | 97.92 ± 7.04 | 108.67 ± 1.94 | 101.72 ± 3.25 | 97.78 ± 4.28 | 101.34 ± 8.37 | 1.22 | 0.0923 ± 0.0135 | 0.0829 ± 0.00782 | 0.0575 ± 0.00752 | 140 ± 40 | 17.5 ± 6.12 | 104 ± 30.3 | 0.000121 | 0.016 ± 0.002 (mg/kg)/(ng/mL)/h | – | – |
| O=P1(N(CCCl)CCCl)NCCCO1 (stereo not drawn) [Cyclophosphamide] | – | – | – | – | – | – | – | – | – | – | – | – | – | – | – | – | – | – | % Aberration (chromosomes): 52%; MI mitotic index (chromosomes): 52; RCG (%) relative cell growth (chromosomes): 112%; RMI (%) relative mitotic index (chromosomes): 85%; Ratio with Negative (chromosomes): 10.40 |
| CC1=C(CO)C(=O)O[C@@H]([C@@H](C)[C@H]2CC[C@H]3[C@@H]4C[C@H]5O[C@]56[C@@H](O)C=CC(=O)[C@]6(C)[C@H]4CC[C@]23C)C1 [Withaferin A] | 99.56 ± 5.11 | 103.30 ± 8.41 | 94.72 ± 6.57 | 103.30 ± 8.41 | 108.40 ± 1.59 | 103.09 ± 4.95 | 102.10 ± 5.76 | 103.41 ± 5.62 | – | – | – | – | – | – | – | – | – | 59.92 ± 15.90 | Papp at 1 h, 2 mg/mL [2]: 1.13 nm/s; Long-term stability (% ± SD) ([1]; rat plasma, −80 °C for 60 days, high QC (nominal 200.50-201.50 ng/mL), the values are: measured concentration): 204 ± 8.81 ng/mL; bioavailability ([3]; withaferin A 10 mg/kg oral dose, 5 mg/kg I.V. dose): 32.4 ± 4.8%; Cmax ([3]; withaferin A 10 mg/kg oral): 0.619 ± 0.125 µg/mL; Tmax ([3]; withaferin A 10 mg/kg oral): 6.6 ± 4.2 min; half-life ([3]; withaferin A 10 mg/kg oral): 456 ± 198 min; AUC(0-inf) (in vivo; plasma, po, 500 mg/kg): 0.188 ± 0.0205 µg·h/mL; AUC(0-t) (in vivo; plasma, po, 500 mg/kg): 0.161 ± 0.0189 µg·h/mL; Cmax (in vivo; plasma, po, 500 mg/kg): 0.124 ± 0.0649 µg/mL; MRT inf (in vivo; plasma, po, 500 mg/kg): 231 ± 51.4 min; Tmax (in vivo; plasma, po, 500 mg/kg): 15 min; half-life (in vivo; plasma, po, 500 mg/kg): 189 ± 36.7 min; k el (in vivo; plasma, po, 500 mg/kg): 6.28e-05 s⁻¹; oral clearance (Cl/F) (in vivo; WSE 500 mg/kg oral single dose): 0.026 ± 0.003 (mg/kg)/(ng/mL)/h; Tmax [4]: 20.00 min; AUC(0–t) [5]: 1090 nM·h; Clearance from plasma [5]: 0.151 L/h; Cmax [5]: 1.8 µM; Tmax [5]: 4.98 min; plasma half-life [5]: 81.6 min |
| CC1=C(C)C(=O)O[C@@H]([C@](C)(O)[C@H]2CC[C@H]3[C@@H]4[C@@H]5O[C@@H]5[C@@]5(O)CC=CC(=O)[C@]5(C)[C@H]4CC[C@]23C)C1 [Withanolide A] | 99.36 ± 6.79 | 128.43 ± 68.06 | 103.63 ± 6.10 | 102.00 ± 7.99 | 105.04 ± 3.63 | 105.35 ± 3.83 | 98.89 ± 4.24 | 102.18 ± 6.01 | 0.665 | 0.00753 ± 0.00183 | 0.00418 ± 0.00103 | 0.00728 ± 0.00334 | 75 ± 34.3 | 20 ± 7.74 | 43.7 ± 25.4 | 0.000391 | 0.356 ± 0.090 (mg/kg)/(ng/mL)/h | 45.22 ± 9.95 | – |
